The text below walks through data of patent US20250154198A1, “PEPTIDE INHIBITORS OF INTERLEUKIN-23 RECEPTOR” (Zealand Pharma A/S, priority 2021, published 2025).

Where two headings read alike, the source gives them in different places. *1 amine or outer side, *2 acyl side, *3 side chain or, on linkers, in order; H or OH if unused. Where a SMILES comes first, the peptide text is derived from it. Bridges are numbered along the chain shown (N, C = ends). [ ]: non-standard residue; d: D form. 2Nal = N[C@@H](Cc1ccc2ccccc2c1)C(=O)O; αMeL = CC(C)C[C@](C)(N)C(=O)O; CH2COCH2 = O=C(C[*:1])C[*:2]; αMeK = C[C@](N)(CCCCN)C(=O)O Where only a bound is given, the exact number is not on record here.

In one experiment the target is T1, human IL-23R (Homo sapiens, UniProt Q5VWK5).
T1 construct: UniProtKB—Q5VWK5, amino acids 22-629; secretion signal of the plasmid (Promega N1371); expressed in transfected cells
T1 sequence (Q5VWK5 22-629): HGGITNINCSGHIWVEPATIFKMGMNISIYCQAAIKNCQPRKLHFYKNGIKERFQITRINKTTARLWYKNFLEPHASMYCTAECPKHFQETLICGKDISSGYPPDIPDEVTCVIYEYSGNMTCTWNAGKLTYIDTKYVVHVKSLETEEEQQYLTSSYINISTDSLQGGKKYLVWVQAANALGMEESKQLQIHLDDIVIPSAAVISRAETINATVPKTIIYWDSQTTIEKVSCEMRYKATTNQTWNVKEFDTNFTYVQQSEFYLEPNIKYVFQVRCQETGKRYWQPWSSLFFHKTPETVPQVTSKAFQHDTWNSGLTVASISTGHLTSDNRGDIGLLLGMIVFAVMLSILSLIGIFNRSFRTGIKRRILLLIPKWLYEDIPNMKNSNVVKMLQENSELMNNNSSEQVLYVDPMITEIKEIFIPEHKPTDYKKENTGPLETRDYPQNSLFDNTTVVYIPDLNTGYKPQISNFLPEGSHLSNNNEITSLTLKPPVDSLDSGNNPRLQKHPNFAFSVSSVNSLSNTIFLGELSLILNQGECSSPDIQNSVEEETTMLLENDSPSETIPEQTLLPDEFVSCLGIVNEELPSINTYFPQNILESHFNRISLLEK
The experiment in a line: Binding assay (NanoBRET displacement of fluorophore-labelled reference compound) for estimating binding affinity to human IL-23R.

The target of experiment [1] is IL-23 mediated phospho-STAT3 formation in DB cells (Homo sapiens, UniProt Q5VWK5). The experiment in a line: Functional inhibition of IL-23 mediated STAT3 signalling (phospho-STAT3 Tyr705 MSD) in DB cells. The experiment is classed as cell-based. An excerpt: Functional Inhibition of IL-23 Mediated STAT3 Signalling by Compounds
Upon binding of IL-23, the IL-23R forms a heterodimer signalling complex together with IL-12R β1, which through the JAK2/STAT3 pathway promotes phosphorylation of STAT3 to form phospho-STAT3.
The assay was used to quantify the functional antagonism of a compound and to rank order the inhibitor compounds according to their potency. For compounds tested in this assay, the response was normalized relative to control values to calculate the IC50 and maximal inhibitory response from a concentration response curve of the compound in presence of a fixed concentration of human IL-23.
The assay procedure was as follows. […] Following preincubation of the DB cells with inhibitor for 15 min in a cell incubator (37° C., 5% CO2), 20 μL of the prepared 3× the EC80 of hIL-23 solution was added to each well and incubated for 90 min in a cell incubator (37° C., 5% CO2). For some wells buffer only or IL-23 only corresponding to the EC80 was added to obtain readouts needed for normalization. To terminate the assay, the plate was spun at 1000 G for 5 min to pellet cells, the supernatant removed using an 8-channel manual pipette, and then added 50 μL/well Complete Lysis Buffer from the MSD STAT3 kit (Cat #K150SVD, Mesoscale) to the cell pellet. To completely lyse cells to release phospho-STAT3 for detection, the plate was shaken for 10 min at room temperature (500 rpm) sealed with aluminum foil and placed at −80° C. for a minimum of 15 min. Detection of the phospho-STAT3 level in the cell lysate from the individual wells was determined using the MSD STAT3 kit (Cat #K150SVD, Mesoscale) and read on a Meso QuickPlex SQ 120 plate reader (Mesoscale).
For data analysis raw data counts from the Meso QuickPlex SQ 120 plate reader were normalized relative to the response by the EC80 of hIL-23 alone (no compound added) and the buffer level. Compound potency (IC50) and maximal inhibitory response (% inhibition) were estimated by computer-aided curve fitting using a 4-parameter logistic (4PL) non-linear model.

Setting [2] is: Table 3-1, read-out: Ki hIL-23R.
Setting [3] is: Table 3-1, DB cells, read-out: IC50 (pSTAT3).

By Ki is commonly meant a measure of affinity in units of concentration, obtained from inhibition or displacement. As usually defined, the IC50 is the concentration needed to halve the response being measured. In the case of `CC(=O)N[C@@H](CC(=O)O)C(=O)N[C@H]1CCC(=O)NCCCC[C@@H](C(=O)N[C@@H](CCCNC(=N)N)C(N)=O)NC(=O)[C@H](CC(C)C)NC(=O)[C@H](Cc2c[nH]c3ccccc23)NC(=O)[C@H](C)NC(=O)[C@@H]2CSCC(=O)CSC[C@H](NC(=O)[C@H](CO)NC1=O)C(=O)N[C@@H](Cc1c[nH]c3ccccc13)C(=O)N[C@@H](CCC(N)=O)C(=O)N2` [Compound 14, [Ac]-DE(1c)SC(2a)WQC(2a)AWLK(1c)R-[NH2]] (HELM PEPTIDE1{[ac].D.E.S.C.W.Q.C.A.W.L.K.R.[am]}|CHEM1{[O=C(C[*:1])C[*:2]]}$PEPTIDE1,PEPTIDE1,3:R3-12:R3|PEPTIDE1,CHEM1,5:R3-1:R1|PEPTIDE1,CHEM1,8:R3-1:R2$$$V2.0), the Ki on human IL-23R (setting [2]) is greater than 1000 nM. Besides, in experiment [1] (setting [3]), the IC50 is greater than 1000 nM.

With `CC(=O)N[C@@H](CC(=O)O)C(=O)N[C@H]1CCC(=O)NCCCC[C@@H](C(=O)N[C@@H](CCCNC(=N)N)C(N)=O)NC(=O)[C@H](CC(C)C)NC(=O)[C@H](Cc2c[nH]c3ccccc23)NC(=O)[C@H](Cc2c[nH]c3ccccc23)NC(=O)[C@@H]2CSCC(=O)CSC[C@H](NC(=O)[C@H](CO)NC1=O)C(=O)N[C@@H](C)C(=O)N[C@@H](CCC(N)=O)C(=O)N2` [Compound 13, [Ac]-DE(1c)SC(2a)AQC(2a)WWLK(1c)R-[NH2]] (HELM PEPTIDE1{[ac].D.E.S.C.A.Q.C.W.W.L.K.R.[am]}|CHEM1{[O=C(C[*:1])C[*:2]]}$PEPTIDE1,PEPTIDE1,3:R3-12:R3|PEPTIDE1,CHEM1,5:R3-1:R1|PEPTIDE1,CHEM1,8:R3-1:R2$$$V2.0), the Ki on human IL-23R (setting [2]) is greater than 1000 nM. For the same compound, the IC50 in experiment [1] (setting [3]) is greater than 1000 nM.

For `CC(C)C[C@@H]1NC(=O)[C@H](Cc2c[nH]c3ccccc23)NC(=O)[C@H](Cc2c[nH]c3ccccc23)NC(=O)[C@H](Cc2ccc(O)cc2)NC(=O)[C@H](CCC(N)=O)NC(=O)[C@H](Cc2c[nH]c3ccccc23)NC(=O)[C@H]([C@@H](C)O)NC(=O)[C@H](CO)NC(=O)[C@@H](NC(=O)[C@@H](N)CC(=O)O)CCC(=O)NCCCC[C@@H](C(=O)N[C@@H](CCCNC(=N)N)C(N)=O)NC1=O` [Ref 3, reference compound] (HELM PEPTIDE1{D.E.S.T.W.Q.Y.W.W.L.K.R.[am]}$PEPTIDE1,PEPTIDE1,2:R3-11:R3$$$V2.0), on human IL-23R (setting [2]), the Ki is greater than 1000 nM. Besides, the IC50 in experiment [1] (setting [3]) was greater than 1000 nM.

Turning to `CC(=O)N[C@@H](CC(=O)O)C(=O)N[C@H]1CCC(=O)NCCCC[C@@H](C(=O)N[C@@H](CCCNC(=N)N)C(N)=O)NC(=O)[C@](C)(CC(C)C)NC(=O)[C@H](Cc2c[nH]c3ccccc23)NC(=O)[C@H](Cc2ccc(O)cc2)NC(=O)[C@@H]2CSCC(=O)CSC[C@H](NC(=O)[C@H](CCC(N)=O)NC1=O)C(=O)N[C@@H](Cc1c[nH]c3ccccc13)C(=O)N[C@@H](CCC(N)=O)C(=O)N2` [Compound 55, [Ac]-DE(1c)QC(2a)WQC(2a)YW[2-Me-Leu]K(1c)R-[NH2]] (HELM PEPTIDE1{[ac].D.E.Q.C.W.Q.C.Y.W.[CC(C)C[C@](C)(N[*:1])C(=O)[*:2]].K.R.[am]}|CHEM1{[O=C(C[*:1])C[*:2]]}$PEPTIDE1,PEPTIDE1,3:R3-12:R3|PEPTIDE1,CHEM1,5:R3-1:R1|PEPTIDE1,CHEM1,8:R3-1:R2$$$V2.0), the IC50 in experiment [1] (setting [3]) was greater than 1000 nM.

On to `CC(=O)N[C@H]1CCC(=O)NCCCC[C@@H](C(N)=O)NC(=O)[C@H](CC(C)C)NC(=O)[C@H](Cc2c[nH]c3ccccc23)NC(=O)[C@H](Cc2c[nH]c3ccccc23)NC(=O)[C@@H]2CSCC(=O)CSC[C@H](NC(=O)[C@H](CO)NC1=O)C(=O)N[C@@H](Cc1c[nH]c3ccccc13)C(=O)N[C@@H](CCC(N)=O)C(=O)N2` [Compound 12, [Ac]-E(1c)SC(2a)WQC(2a)WWLK(1c)-[NH2]] (HELM PEPTIDE1{[ac].E.S.C.W.Q.C.W.W.L.K.[am]}|CHEM1{[O=C(C[*:1])C[*:2]]}$PEPTIDE1,PEPTIDE1,2:R3-11:R3|PEPTIDE1,CHEM1,4:R3-1:R1|PEPTIDE1,CHEM1,7:R3-1:R2$$$V2.0), for which, in experiment [1] (setting [3]), the IC50 is greater than 1000 nM.

For the compound `CC(C)C[C@@H]1NC(=O)[C@H](Cc2c[nH]c3ccccc23)NC(=O)[C@H](Cc2c[nH]c3ccccc23)NC(=O)[C@@H]2CSSC[C@H](NC(=O)[C@H](CO)NC(=O)[C@@H](NC(=O)[C@@H](N)CC(=O)O)CSSC[C@@H](C(=O)N[C@@H](CCCNC(=N)N)C(N)=O)NC1=O)C(=O)N[C@@H](Cc1c[nH]c3ccccc13)C(=O)N[C@@H](CCC(N)=O)C(=O)N2` [Ref 1, H-DC(1b)SC(2b)WQC(2b)WWLC(1b)R-[NH2], reference compound], at human IL-23R, the Ki was greater than 1000 nM. Also, the “IL-23R inhibitory activity (in words)” value at human IL-23R (with reference to Ki and IC50 data of the Examples) is “inactive”. For the same compound, the IC50 is greater than 1000 nM in experiment [1] and greater than 1000 nM in experiment [1] (read-out: IC50 (pSTAT3), Table 3-1, DB cells).

On to `CC(=O)N[C@@H](CC(=O)O)C(=O)N[C@H]1CCC(=O)NCCCC[C@@H](C(=O)N[C@@H](CCC(=O)O)C(=O)N[C@@H](CC(N)=O)C(=O)NCC(N)=O)NC(=O)[C@](C)(CCCCN)NC(=O)[C@H](Cc2ccc3ccccc3c2)NC(=O)[C@H](Cc2c[nH]c3ccccc23)NC(=O)[C@@H]2CSCC(=O)CSC[C@H](NC(=O)[C@H](CO)NC1=O)C(=O)N[C@@H](Cc1c[nH]c3ccccc13)C(=O)N[C@@H](CCC(N)=O)C(=O)N2` [Compound 61, [Ac]-DE(1c)SC(2a)WQC(2a)W[2-Nal][2-Me-Lys]K(1c)ENG-[NH2]] (Ac-DESCWQCW[2Nal][αMeK]KENG-NH2; lactam 2-11; linker 4-7 via CH2COCH2), for which the IC50 in experiment [1] (setting [3]) was greater than 1000 nM.

With `CC(=O)N[C@@H](CC(=O)O)C(=O)N[C@H]1CCC(=O)NCCCC[C@@H](C(=O)N[C@@H](CCCNC(=N)N)C(N)=O)NC(=O)[C@](C)(CC(C)C)NC(=O)[C@H](Cc2c[nH]c3ccccc23)NC(=O)[C@H](Cc2ccc3ccccc3c2)NC(=O)[C@@H]2CSCC(=O)CSC[C@H](NC(=O)[C@H](CCC(N)=O)NC1=O)C(=O)N[C@@H](Cc1c[nH]c3ccccc13)C(=O)N[C@@H](CCC(N)=O)C(=O)N2` [Compound 56, [Ac]-DE(1c)QC(2a)WQC(2a)[2-Nal]W[2-Me-Leu]K(1c)R-[NH2]] (Ac-DEQCWQC[2Nal]W[αMeL]KR-NH2; lactam 2-11; linker 4-7 via CH2COCH2), in experiment [1] (setting [3]), the IC50 is greater than 1000 nM.

Regarding `CC(=O)N[C@H]1CCCCNC(=O)CC[C@@H](C(=O)N[C@@H](CCCNC(=N)N)C(N)=O)NC(=O)[C@H](CC(C)C)NC(=O)[C@H](Cc2ccc3ccccc3c2)NC(=O)[C@H](Cc2c[nH]c3ccccc23)NC(=O)[C@@H]2CSCC(=O)CSC[C@H](NC(=O)[C@H](CO)NC1=O)C(=O)N[C@@H](Cc1ccc3ccccc3c1)C(=O)N[C@@H](CCC(N)=O)C(=O)N2` [Compound 25, [Ac]-K(1c)SC(2a)[2-Nal]QC(2a)W[2-Nal]LE(1c)R-[NH2]] (Ac-KSC[2Nal]QCW[2Nal]LER-NH2; lactam 1-10; linker 3-6 via CH2COCH2), the IC50 in experiment [1] (setting [3]) is greater than 1000 nM.

Consider `CC(=O)N[C@@H](CC(=O)O)C(=O)N[C@H]1CCC(=O)NCCCC[C@@H](C(N)=O)NC(=O)[C@H](CC(C)C)NC(=O)[C@H](Cc2c[nH]c3ccccc23)NC(=O)[C@H](Cc2c[nH]c3ccccc23)NC(=O)[C@@H]2CSCC(=O)CSC[C@H](NC(=O)[C@H](CO)NC1=O)C(=O)N[C@@H](Cc1c[nH]c3ccccc13)C(=O)N[C@@H](CCC(N)=O)C(=O)N2` [Compound 11, [Ac]-DE(1c)SC(2a)WQC(2a)WWLK(1c)-[NH2]] (HELM PEPTIDE1{[ac].D.E.S.C.W.Q.C.W.W.L.K.[am]}|CHEM1{[O=C(C[*:1])C[*:2]]}$PEPTIDE1,PEPTIDE1,3:R3-12:R3|PEPTIDE1,CHEM1,5:R3-1:R1|PEPTIDE1,CHEM1,8:R3-1:R2$$$V2.0), for which the IC50 in experiment [1] (setting [3]) was greater than 1000 nM.
